Assay results reported in patent publication US20100278983A1, “COMPOSITION OF MONASCUS FERMENTED PRODUCT WITH A FUNCTION THAT REDUCES BODY FATNESS FORMATION AND THE METHOD FOR MANUFACTURING THE SAME” (SUNWAY BIOTECH CO., LTD., priority 2009, published 2010).

How the values were obtained:
[1] = system: 3T3-L1 preadipocyte; assay: Proliferation rate of 3T3-L1 preadipocyte; type: cell-based; details: for decrease of proliferation rate of 3T3-L1 preadipocyte: 24 hours
Excerpt: (§1) 3T3-L1 preadipocyte is used as the experimental material in the in vitro cellular experiments to probe into the effects of Monascus fermented product on proliferation and differentiation in preadipocyte.

[2] = Body weight of rats fed with high-fat diet and Monascus fermented product; type: in vivo, male Wister rats; details: after 6 weeks of feeding, dosage not stated
Excerpt: In order to estimate the effects of Monascus fermented product on the decrease in body fat mass development and body weight-lowering, the present invention carried out in vitro cellular experiments and in vivo experiments. 3T3-L1 preadipocyte is used as the experimental material in the in vitro cellular experiments to probe into the effects of Monascus fermented product on proliferation and differentiation in preadipocyte. Male Wister rates are used as the experimental animals in the in vivo experiments and fed with high-fat diet and Monascus fermented products at the same time, then determine the effects of the decrease in body fat mass development by many evaluation indicators after […] of breeding.
Rats are randomly divided into to 9 groups, each include 8 rats, on the principles that the initial average weights of rats are unanimous. Rats are fed with high-fat diet and Monascus fermented product at the same time in experiments and then sacrificed for every analyses after 6 weeks of feeding. […]

[3] = system: 3T3-L1 preadipocyte; assay: Differentiation rate of 3T3-L1 preadipocyte (content of triglyceride, TG); type: cell-based; details: Mus musculus; for inhibition at 125 µg/mL: 0.125 mg/mL
Method: as §1
In this research, 50, 100 and 200 μg/mL of water extracts of red mold rice and red mold dioscorea are added to 3T3-L1 preadipocyte respectively during differentiation induction and then the cells are collected to be analyzed the content of triglyceride after 8 days of differentiation. TG synthesis is an indicator for the differentiation late phase of the fat cells, thus the TG content in cells are usually used to determine the differentiation rate.

## CC[C@H](C)C(=O)O[C@H]1C[C@@H](C)C=C2C=C[C@H](C)[C@H](CC[C@@H]3C[C@@H](O)CC(=O)O3)[C@H]21 [Monacolin K]
[1]; 1.25 μg/mL
  decrease of proliferation rate of 3T3-L1 preadipocyte: 13.0%
[1]; 2.5 μg/mL
  decrease of proliferation rate of 3T3-L1 preadipocyte: 18.2%
[1]; 5 μg/mL
  decrease of proliferation rate of 3T3-L1 preadipocyte: 23.9%
[1]; 10 μg/mL
  decrease of proliferation rate of 3T3-L1 preadipocyte: 28.6%
[2]
  Final body weight: 472.4 g
  Increment of body weight: 141.1 g

## C/C=C/C1=CC2=C(CO1)C(=O)[C@]1(C)OC(=O)[C@H](C(=O)CCCCCCC)[C@H]1C2 [ankaflavin]
[3]
  inhibition at 125 µg/mL: 41.2%
[3]; 0.25 mg/mL
  inhibition at 250 µg/mL: 29.9%

## C/C=C/C1=CC2=C(CO1)C(=O)[C@]1(C)OC(=O)[C@H](C(=O)CCCCC)[C@H]1C2 [monascin]
[1]; Mus musculus, 3T3-L1, 1 mg/mL, 72 hours
  inhibition at 1000 µg/mL: 8%
[3]
  inhibition at 125 µg/mL: 31.2%
